PubChem BioAssay AID449762 (Southern Research Specialized Biocontainment Screening …, 2010)
Results filed as inconclusive are left out.

System: M. tuberculosis H37Rv growth inhibition, 7H9 media
Assay: M. tuberculosis growth inhibition, HTS (AID 449762);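 further: bacterial growth assessed after seven days of incubation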
Conditions: measured here: IC90 growth inhibition

Row | Compound | IC90 [µM]
1 | CC(C)c1ccc2[nH]c(O)c(N=NC(=O)c3ccc(CSc4nncn4C)cc3)c2c1 | > 100
2 | CC(C)(C)NC(=O)C(=O)NNC(=O)c1ccc(C(C)(C)C)cc1 | 17.6
3 | COc1ccc(/C(O)=C/Sc2nnc(Cc3ccccc3)o2)cc1 | > 100
4 | CCOC(=O)C1=C(C)Nc2nc(SCC(=O)OC)nn2C1c1cc(F)cc(F)c1 (stereo unspecified) | 7.95
5 | COC(=O)c1ccc2c(c1O)C(=O)c1ccccc1C2=O | 77.9
6 | CCOC(=O)CCCNC(=O)COC(=O)c1cc(Br)c(Br)s1 | > 100
7 | Nc1c(-c2ccccn2)cnn1-c1nc(-c2ccc(F)cc2)cs1 | > 100
8 | Cc1cc(C)c2cc(C(=O)Nc3ccc(C)c(F)c3)[nH]c2c1 | 1.69
9 | O=C(CSc1nnnn1-c1ccc2c(c1)OCCO2)OC1CCCCC1 | 21.7
10 | CN(C)C/C=C/C(=O)Nc1cccc(-c2c[nH]c3ncnc(Oc4ccc(NC(=O)CC(=O)Nc5ccc(F)cc5)cc4F)c23)c1 | 14.7
11 | O=C(Oc1c(Cl)cc(Cl)c2cccnc12)c1cccs1 | 1.24
12 | O=C(/C=C/c1ccc([N+](=O)[O-])cc1)NC1CC2CCC1C2 (stereo unspecified) | 84.1
13 | Cc1cccc(C(=O)NNC(=S)NC(=O)c2ccccc2)c1 | 2.82
14 | CNC(=O)COC(=O)c1ccc(-c2nc3ccccc3s2)s1 | 23
15 | CN(c1ccccc1)S(=O)(=O)c1cccc(C(=O)NCc2ccccc2CN2CCCC2)c1 | 55.4
16 | Oc1ccc(F)c2cccnc12 | 6.88
17 | O=C(Cc1ccc([N+](=O)[O-])cc1)Nc1cc(C(F)(F)F)cc(C(F)(F)F)c1 | 3.12
18 | Oc1ccc(/C=N/n2c3ccccc3c3ccccc32)cc1 | > 100
19 | Cc1ccc(N/N=C/C=C/c2ccco2)cc1 | 98.2
20 | CCCCCCCNC(=O)c1ccc(N2CCC3(CC2)OCCO3)c([N+](=O)[O-])c1 | 47.2
21 | CC(C)Oc1ccc(C(=O)N/N=C/c2ccc(-c3ccc(S(=O)(=O)Nc4ncccn4)cc3)o2)cc1 | 37.4

Row | Compound | IC90 [µM]
22 | Cc1ccc2[nH]c(C(=O)NN=C3CCCCC3)c(-c3ccccc3)c2c1 | 56.6
23 | COc1ccc(/C=N/OCC(=O)OCC(=O)N(C)c2ccccc2)cc1 | 39.1
24 | COc1ccc(C(=O)C[n+]2ccc3c(c2)nc(-c2cc(OC)c(OC)cc2OC)n3C)cc1 | 13.4
25 | COc1cc(C(=O)/C=C/c2cccnc2)c([N+](=O)[O-])cc1OC | 8.56
26 | CCOC(=O)C1(CCOc2ccccc2)CCN(Cc2cccc(-n3cccn3)c2)CC1 | 28.8
27 | Cc1cc(Nc2ccccc2)c2c([N+](=O)[O-])ccc(C)c2n1 | > 100
28 | Cc1ccc2[nH]c3c(c2c1)CN(C(=O)CN1CCN(c2ccccn2)CC1)CC3 | > 100
29 | CCCOc1ccc(C(=O)NC(=S)NCc2cccnc2)cc1 | 28
30 | CC(C)NC(=S)N/N=C/c1cc(Br)ccc1O | 18.3
31 | Cn1nc(-c2ccccc2F)c2cc(C(=O)Nc3ccc4c(c3)OCCO4)sc21 | 35.5
32 | NNC(=S)Nc1ccccc1Cl | 27.8
33 | O=C(CCl)Nc1cn(-c2ccccc2)nc1-c1ccccc1 | 1.15
34 | CCCCS(=O)(=O)/C=C\C=C/S(=O)(=O)CCCC | 1.96
35 | O=c1cc2[nH]c3ccccc3c(=O)n2nc1-c1ccccc1 | 18
36 | CCCCCCSc1nsc(NC(=O)CC(C)C)n1 | > 100
37 | CC(C)CC[n+]1ccccc1/C=C/c1ccc(N(C)C)cc1 | 8.41
38 | CN1CCN(CC(=O)N2CCn3c4c(c5cc(C6CCCCC6)ccc53)CCCC42)CC1 (stereo unspecified) | 23.6
39 | CCCCCCCCNC(C)C(O)c1ccc(SC(C)C)cc1 (stereo unspecified) | 31.8
40 | CS(=O)(=O)c1ccc([C@@H](O)[C@@H](CF)NC(=O)C(Cl)Cl)cc1 | 24.7
41 | COc1ccc(C(C)=O)cc1COC(=O)c1ccc2ccccc2n1 | > 100
42 | CN1CCN(c2cc(-c3ccccc3)nc3cc(-c4ccc(F)cc4)nn23)CC1 | 15.7

Row | Compound | IC90 [µM]
43 | CCOC(=O)Oc1c(OC)cc(C(=O)O[C@@H]2C[C@@H]3CN4CCc5c([nH]c6cc(OC)ccc56)[C@H]4C[C@@H]3[C@H](C(=O)OC)[C@H]2OC)cc1OC | 27.3
44 | O=C(c1ccc([N+](=O)[O-])s1)N1CCN(c2ccc(C(F)(F)F)cn2)CC1 | < 0.2
45 | O=C(/C=C/c1ccc(O)cc1)c1ccc(NC2=C(N3CCCCC3)C(=O)c3ccccc3C2=O)cc1 | 13.6
46 | CCN(CC)CCNC(=O)c1ccc(NC(=O)c2cn(-c3ccccc3)nc2-c2cccs2)cc1 | 27.1
47 | Cc1cc2cc(CNC(=O)NC3CCCCC3)ccc2[nH]1 | 50.9
48 | CC(C)OC(=O)c1ccc(NC(=S)NC(=O)c2cncc(Br)c2)cc1 | > 100
49 | N#C/C(=C1\CCCN1)c1nc(-c2ccccc2)cs1 | > 100
50 | C[C@@H]1CN([C@H](C)CO)C(=O)c2cc(NC(=O)Nc3ccc(C(F)(F)F)cc3)ccc2O[C@H]1CN(C)S(=O)(=O)c1cccs1 | 25.9
51 | COC(=O)c1c(NC(=O)CCl)sc(C(=O)N2CCOCC2)c1C | 5.65
52 | O=Cc1ccc(-c2ccc(Cl)cc2Cl)[nH]1 | > 100
53 | COc1ccccc1C(=O)NNC(=O)C(=O)NCc1ccccc1 | 37.9
54 | Cc1c(CN(C)C)c2c(n1Cc1ccccc1)C(=O)c1ccc(Br)cc1-2 | 22
55 | O=c1[nH]c(CN2CC=C(c3ccccc3)CC2)nc2cc(C(F)(F)F)ccc12 | 86
56 | CCC(=O)N1c2ccc(S(=O)(=O)CCC(=O)N3CCn4c3nc3ccccc34)cc2CC1C (stereo unspecified) | 19.5
57 | CC(C)Nc1nc(NC(C)C)nc(N(C)N)n1 | 7.57
58 | c1ccc2c(c1)ncn2CCCCOc1ccc2c(c1)CCC2 | 25.7
59 | CCOC(=O)CSc1ncnc2c1sc1nc(N3CCOCC3)c3c(c12)CCCC3 | 26.2
60 | c1cc2c3c(cccc3c1)NC1(CCC3(CC1)Nc1cccc4cccc(c14)N3)N2 | > 100
61 | COc1ccc(-c2ccnc3nc(N4CCN(c5ccccc5)CC4)nn23)cc1 | 47.9
